# Experimental data published in patent US20260022142A1, “MACROCYCLIC IMMUNOMODULATORS” (Bristol-Myers Squibb Company, priority 2022, published 2026).
# Bridge positions count the residues as written; N and C are the ends. Square brackets hold non-standard residues; d marks the D form. Peptide text beside a SMILES is read from it. * marks the point of attachment. ξ: configuration not given here. Phe(3-CF3) = N[C@@H](Cc1cccc(C(F)(F)F)c1)C(=O)O; Phe(4-COOH) = N[C@@H](Cc1ccc(C(=O)O)cc1)C(=O)O; Phe(4-CH2NH2) = NCc1ccc(C[C@H](N)C(=O)O)cc1; Bip = N[C@@H](Cc1ccc(-c2ccccc2)cc1)C(=O)O; NH(CH2)14COOH = O=C(O)CCCCCCCCCCCCCCN*; Phe(3-Me) = Cc1cccc(C[C@H](N)C(=O)O)c1; Val(3-OH) = CC(C)(O)[C@H](N)C(=O)O; Cha = N[C@@H](CC1CCCCC1)C(=O)O; Cit = NC(=O)NCCC[C@H](N)C(=O)O; Ile(3ξ) = CCC(C)[C@H](N)C(=O)O; aThr = C[C@H](O)[C@H](N)C(=O)O; Thr(3ξ) = CC(O)[C@H](N)C(=O)O; PEG4 = NCCOCCOCCOCCOCCC(=O)O; Dap(Me) = CNC[C@H](N)C(=O)O; 12Ado = NCCCCCCCCCCCC(=O)O; Carboxymethyl = O=C(O)C*; Orn = NCCC[C@H](N)C(=O)O; Aun = NCCCCCCCCCCC(=O)O; Dab = NCC[C@H](N)C(=O)O; Abu = CC[C@H](N)C(=O)O; Dap = NC[C@H](N)C(=O)O; AEEA = NCCOCCOCC(=O)O; ξDab = NCCC(N)C(=O)O
# Target: T1, PD-1/PD-L1 interaction (PE-labeled human PD-L1-Ig binding to Jurkat cell line over-expressing human PD-1) (Homo sapiens, UniProt Q15116)
# T1 construct: expressed in transfected cells; host or cells: Jurkat
# T1 sequence (Q15116 25-288): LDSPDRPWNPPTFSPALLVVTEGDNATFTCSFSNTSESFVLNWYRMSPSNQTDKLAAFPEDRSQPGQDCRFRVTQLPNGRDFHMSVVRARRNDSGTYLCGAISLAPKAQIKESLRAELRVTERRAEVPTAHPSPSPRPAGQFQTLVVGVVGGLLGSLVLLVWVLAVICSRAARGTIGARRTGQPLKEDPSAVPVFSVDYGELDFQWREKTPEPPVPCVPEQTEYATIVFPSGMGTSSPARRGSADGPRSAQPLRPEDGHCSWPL
# Assay: Jurkat-PD-1 Cell Binding High-Content Screening Assay (CBA)
# Format: cell-based
# Conditions: Jurkat cell line over-expressing human PD-1; PE-labeled PD-L1-Ig 20 nM final; read-out: Jurkat hPD1-PDL1 IC50
# Procedure, shortened: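 Read-out is high-content imaging of cell-bound phycoerythrin-tagged PD-L1-Ig on fixed, Hoechst-counterstained Jurkat cells that over-express human PD-1. Compound exposure lasts 2 h at 37° C before the labeled ligand (20 nM final) is added for a further hour.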
row,SMILES,IC50 [nM]
1,Cc1cccc(C[C@@H]2NC(=O)[C@H](CC(=O)O)NC(=O)[C@H](Cc3ccc(OCC(=O)O)cc3)NC(=O)[C@H](CN)NC(=O)CSC[C@@H](C(=O)N[C@@H](CCCCN)C(=O)NCCCCCCCCCCC(=O)O)NC(=O)[C@@H](CO)NC(=O)[C@H](C(C)C)NC(=O)[C@H](CC3CCCCC3)NC(=O)[C@H](CCN)NC(=O)[C@@H](CC(C)C)NC(=O)[C@H](CCCN)NC(=O)[C@H](C(C)C)NC(=O)[C@H](Cc3ccc(-c4ccccc4)cc3)NC(=O)[C@H](C(C)C)NC2=O)c1 [Compound 2001] ({CH2CO}-[Dap]Y(Carboxymethyl)D[Phe(3-Me)]V[Bip]V[Orn][dL][Dab][Cha]V[dS]CK[Aun]-OH; thioether N-14),32.4
2,CCC(C)[C@@H]1NC(=O)[C@H](Cc2ccc(-c3ccccc3)cc2)NC(=O)[C@H](C(C)C)NC(=O)[C@H](Cc2c[nH]c3ccccc23)NC(=O)[C@H](CC(=O)O)NC(=O)[C@H](Cc2ccc(OCC(=O)O)cc2)NC(=O)[C@H](C(C)O)NC(=O)CSC[C@@H](C(=O)N[C@@H](CCCN)C(=O)NCCCCCCCCCCCC(=O)O)NC(=O)[C@H](C(C)O)NC(=O)[C@H](C(C)C)NC(=O)[C@H](CC2CCCCC2)NC(=O)[C@H](CCN)NC(=O)[C@@H](CC(C)C)NC(=O)[C@H](CCCN)NC1=O (stereo partly drawn) [Compound 3097] ({CH2CO}-[Thr(3ξ)]Y(Carboxymethyl)DWV[Bip][Ile(3ξ)][Orn][dL][Dab][Cha]V[Thr(3ξ)]C[Orn][12Ado]-OH; thioether N-14),22.8
3,CC(=O)NCCCC[C@@H]1NC(=O)[C@H](Cc2ccc(-c3ccccc3)cc2)NC(=O)[C@H](Cc2ccc(O)cc2)NC(=O)[C@H](Cc2cccc(C)c2)NC(=O)[C@H](CC(=O)O)NC(=O)[C@H](Cc2ccc(OCC(=O)O)cc2)NC(=O)[C@H](CCN)NC(=O)CSC[C@@H](C(=O)N[C@@H](CCN)C(=O)N[C@@H](CO)C(=O)NCCCCCCCCCCCC(=O)O)NC(=O)[C@H](CO)NC(=O)[C@H](CCCCN)NC(=O)[C@H](CC2CCCCC2)NC(=O)[C@H](CCN)NC(=O)[C@@H](CC(C)C)NC(=O)[C@H](CCCN)NC1=O [Compound 3627] ({CH2CO}-[Dab]Y(Carboxymethyl)D[Phe(3-Me)]Y[Bip]K(Ac)[Orn][dL][Dab][Cha]KSC[Dab]S[12Ado]-OH; thioether N-14),36.7
4,Cc1cccc(C[C@@H]2NC(=O)[C@H](CC(=O)O)NC(=O)[C@H](Cc3ccc(OCC(=O)O)cc3)NC(=O)[C@H]([C@H](C)O)NC(=O)CSC[C@@H](C(=O)N[C@@H](CCN)C(=O)NCCCCCCCCCCC(=O)O)NC(=O)[C@H](CO)NC(=O)[C@H](C(C)(C)O)NC(=O)[C@H](CC3CCCCC3)NC(=O)[C@H](CCN)NC(=O)[C@@H](CC(C)C)NC(=O)[C@H](CCCN)NC(=O)[C@H](Cc3ccc(OCC(=O)O)cc3)NC(=O)[C@H](Cc3ccc(-c4ccccc4)cc3)NC(=O)[C@H](Cc3ccc(OCC(=O)O)cc3)NC2=O)c1 [Compound 2205] ({CH2CO}-[aThr]Y(Carboxymethyl)D[Phe(3-Me)]Y(Carboxymethyl)[Bip]Y(Carboxymethyl)[Orn][dL][Dab][Cha][Val(3-OH)]SC[Dab][Aun]-OH; thioether N-14),12.5
5,Cc1cccc(C[C@@H]2NC(=O)[C@H](CC(=O)O)NC(=O)[C@H](Cc3ccc(OCC(=O)O)cc3)NC(=O)[C@H](CN)NC(=O)CSC[C@@H](C(=O)N[C@@H](CCN)C(=O)NCCCCCCCCCCCC(=O)O)NC(=O)[C@H](C(C)O)NC(=O)[C@H](C(C)C)NC(=O)[C@H](CC3CCCCC3)NC(=O)[C@H](CCN)NC(=O)[C@@H](CC(C)C)NC(=O)[C@H](CCCN)NC(=O)[C@H](CCCNC(N)=O)NC(=O)[C@H](Cc3ccc(-c4ccccc4)cc3)NC(=O)[C@H](C(C)C)NC2=O)c1 (stereo partly drawn) [Compound 3125] ({CH2CO}-[Dap]Y(Carboxymethyl)D[Phe(3-Me)]V[Bip][Cit][Orn][dL][Dab][Cha]V[Thr(3ξ)]C[Dab][12Ado]-OH; thioether N-14),29.1
6,Cc1cccc(C[C@@H]2NC(=O)[C@H](CC(=O)O)NC(=O)[C@H](Cc3ccc(OCC(=O)O)cc3)NC(=O)[C@H](CCCNC(=N)N)NC(=O)CSC[C@@H](C(=O)NC(CCN)C(=O)NCCCCCCCCCCCC(=O)O)NC(=O)[C@H](C(C)O)NC(=O)[C@H](C(C)C)NC(=O)[C@H](CC3CCCCC3)NC(=O)[C@H](Cc3c[nH]cn3)NC(=O)[C@@H](CC(C)C)NC(=O)[C@H](CCCN)NC(=O)[C@H](CCCNC(N)=O)NC(=O)[C@H](Cc3ccc(-c4ccccc4)cc3)NC(=O)[C@H](C(C)C)NC2=O)c1 (stereo partly drawn) [Compound 3501] ({CH2CO}-RY(Carboxymethyl)D[Phe(3-Me)]V[Bip][Cit][Orn][dL]H[Cha]V[Thr(3ξ)]C[ξDab][12Ado]-OH; thioether N-14),103

# Further molecules by falling IC50, results first:
row,IC50 [nM],SMILES
1,244,CC[C@@H]1NC(=O)CSC[C@@H](C(=O)N[C@@H](CCN)C(=O)NCCOCCOCCOCCOCCC(=O)NCCCCCCCCCCCCCCC(=O)O)NC(=O)[C@H](Cc2c[nH]cn2)NC(=O)[C@H](C(C)(C)O)NC(=O)[C@H](CC2CCCCC2)NC(=O)[C@H](CCN)NC(=O)[C@@H](CC(C)C)NC(=O)[C@H](CCCN)NC(=O)[C@H](Cc2ccc(C(=O)O)cc2)NC(=O)[C@H](Cc2ccc(-c3ccccc3)cc2)NC(=O)[C@H](Cc2ccc(C(=O)O)cc2)NC(=O)[C@H](Cc2cccc(C(F)(F)F)c2)NC(=O)[C@H](CC(=O)O)NC(=O)[C@H](Cc2ccc(OCC(=O)O)cc2)NC1=O [Compound 2927] ({CH2CO}-[Abu]Y(Carboxymethyl)D[Phe(3-CF3)][Phe(4-COOH)][Bip][Phe(4-COOH)][Orn][dL][Dab][Cha][Val(3-OH)]HC[Dab][PEG4]-{NH(CH2)14COOH}; thioether N-14)
2,224,CNC[C@@H]1NC(=O)CSC[C@@H](C(=O)N[C@@H](CCN)C(=O)NCCOCCOCC(=O)NCCCCCCCCCCCCCCC(=O)O)NC(=O)[C@H](CCC(=O)O)NC(=O)[C@H](C(C)C)NC(=O)[C@H](CC2CCCCC2)NC(=O)[C@H](CCN)NC(=O)[C@@H](CC(C)C)NC(=O)[C@H](CCCN)NC(=O)[C@H](Cc2ccc(C(=O)O)cc2)NC(=O)[C@H](Cc2ccc(-c3ccccc3)cc2)NC(=O)[C@H](Cc2ccc(C(=O)O)cc2)NC(=O)[C@H](Cc2cccc(C(F)(F)F)c2)NC(=O)[C@H](CC(=O)O)NC(=O)[C@H](Cc2ccc(C(=O)O)cc2)NC1=O [Compound 3896] ({CH2CO}-[Dap(Me)][Phe(4-COOH)]D[Phe(3-CF3)][Phe(4-COOH)][Bip][Phe(4-COOH)][Orn][dL][Dab][Cha]VEC[Dab][AEEA]-{NH(CH2)14COOH}; thioether N-14)
3,202,CCC(C)[C@@H]1NC(=O)[C@H](Cc2ccc(-c3ccccc3)cc2)NC(=O)[C@H](C(C)C)NC(=O)[C@H](Cc2c[nH]c3ccccc23)NC(=O)[C@H](CC(=O)O)NC(=O)[C@H](Cc2ccc(OCC(=O)O)cc2)NC(=O)[C@H](Cc2ccc(OCC(=O)O)cc2)NC(=O)CSC[C@@H](C(=O)N[C@H](C)C(=O)NCCOCCOCC(=O)NCCCCCCCCCCCCCCC(=O)O)NC(=O)[C@H](CCCNC(=N)N)NC(=O)[C@H](C(C)(C)O)NC(=O)[C@H](CC2CCCCC2)NC(=O)[C@H](CCN)NC(=O)[C@@H](CC(C)C)NC(=O)[C@H](CCCN)NC1=O (stereo partly drawn) [Compound 3886] ({CH2CO}-Y(Carboxymethyl)Y(Carboxymethyl)DWV[Bip][Ile(3ξ)][Orn][dL][Dab][Cha][Val(3-OH)]RC[dA][AEEA]-{NH(CH2)14COOH}; thioether N-14)
4,77.1,CC(C)C[C@@H]1NC(=O)[C@H](Cc2c[nH]c3ccccc23)NC(=O)[C@H](CC(=O)O)NC(=O)[C@H](Cc2ccc(OCC(=O)O)cc2)NC(=O)[C@H](C(C)O)NC(=O)CSC[C@@H](C(=O)N[C@@H](CCN)C(=O)NCCCCCCCCCCC(=O)O)NC(=O)[C@H](CCCN)NC(=O)[C@H](C(C)O)NC(=O)[C@H](CC2CCCCC2)NC(=O)[C@H](CCN)NC(=O)[C@@H](CC(C)C)NC(=O)[C@H](CCCN)NC(=O)[C@H](Cc2ccc(O)cc2)NC(=O)[C@H](Cc2ccc(-c3ccccc3)cc2)NC1=O (stereo partly drawn) [Compound 3684] ({CH2CO}-[Thr(3ξ)]Y(Carboxymethyl)DWL[Bip]Y[Orn][dL][Dab][Cha][Thr(3ξ)][Orn]C[Dab][Aun]-OH; thioether N-14)
5,10.8,Cc1cccc(C[C@@H]2NC(=O)[C@H](CC(=O)O)NC(=O)[C@H](Cc3ccc(OCC(=O)O)cc3)NC(=O)[C@H](CCCNC(=N)N)NC(=O)CSC[C@@H](C(=O)N[C@@H](CCN)C(=O)NCCCCCCCCCCC(=O)O)NC(=O)[C@H](CCC(N)=O)NC(=O)[C@H](C(C)C)NC(=O)[C@H](CC3CCCCC3)NC(=O)[C@H](CCN)NC(=O)[C@@H](CC(C)C)NC(=O)[C@H](CCCN)NC(=O)[C@H](Cc3ccc(O)cc3)NC(=O)[C@H](Cc3ccc(-c4ccccc4)cc3)NC(=O)[C@H](Cc3ccc(O)cc3)NC2=O)c1 [Compound 3382] ({CH2CO}-RY(Carboxymethyl)D[Phe(3-Me)]Y[Bip]Y[Orn][dL][Dab][Cha]VQC[Dab][Aun]-OH; thioether N-14)
6,9.7,Cc1cccc(C[C@@H]2NC(=O)[C@H](CC(=O)O)NC(=O)[C@H](Cc3ccc(OCC(=O)O)cc3)NC(=O)[C@H](CN)NC(=O)CSC[C@@H](C(=O)N[C@@H](CCN)C(=O)NCCOCCOCC(=O)NCCCCCCCCCCC(=O)O)NC(=O)[C@H](CCCN)NC(=O)[C@H](C(C)C)NC(=O)[C@H](CC3CCCCC3)NC(=O)[C@H](CCN)NC(=O)[C@@H](CC(C)C)NC(=O)[C@H](CCCN)NC(=O)[C@H](Cc3ccc(CN)cc3)NC(=O)[C@H](Cc3ccc(-c4ccccc4)cc3)NC(=O)[C@H](Cc3ccc(O)cc3)NC2=O)c1 [Compound 2046] ({CH2CO}-[Dap]Y(Carboxymethyl)D[Phe(3-Me)]Y[Bip][Phe(4-CH2NH2)][Orn][dL][Dab][Cha]V[Orn]C[Dab][AEEA][Aun]-OH; thioether N-14)
